Data: PMC5430599, “Antiplasmodial dihetarylthioethers target the coenzyme A synthesis pathway in Plasmodium falciparum erythrocytic stages” (Malaria Journal, 2017)
Like-named read-outs stand apart in the source and are kept apart here. Blank lines part the entries; values can stand above or below the molecule they belong to.

Key:
[1] = test system: asexual erythrocytic stages of transgenic NF54-luc P. falciparum; test: Luciferase-based viability screening for anti-malarial activity; assay type: cell-based, Plasmodium falciparum; conditions: for inhibition at 3 µM: read-out: % inhibition, PfNF54-Luc at 3 µM, 3 µM, 48 h; for inhibition at 3 µM / % inhibition, PfNF54-Luc at 3 µM: >50% inhibition of viability rated active; for % inhibition, PfNF54-Luc at 3 µM: 48 h
Method: Asexual erythrocytic stages of transgenic NF54-luc P. falciparum were used for the luciferase-based viability assay. These parasites constitutively express high levels of luciferase. The parasites were cultured as described previously. Parasite culture with parasitaemia of 0.5–1% was dispensed in triplicate into white 96-well flat-bottom plates (each well contains 250 µL) (NUNC, Roskilde, […], 90% N2, 5% CO2, and 5% O2). 0.01% DMSO was included in the untreated infected RBC cultures as negative control, since the compounds stock initially was diluted in DMSO and each treatment well also contained 0.01% DMSO. Subsequently, 100 µL RPMI1640 media was removed from each well and a 100 µL volume of the Bright-Glo® substrate solution added to each well. The resultant cleavage product of the reaction, light, was measured using a FLUOROSKAN FL luminometer (Thermo), to ascertain viable parasites. Untreated cultures were used as negative controls and to calculate the inhibition rate (0% inhibition of parasite growth). Blasticidin (Sigma-Aldrich, St. Louis, MO, USA), used for selection of transfected parasites, was included as a positive control on each plate and gave >90% inhibition of parasite growth at concentration 2 µg/mL. Compounds with >50% inhibition of viability were rated as actives. Experiments were performed in triplicate and were repeated at least twice.

[2] = test system: Plasmodium falciparum parasites (3D7 strain); test: Coenzyme A rescue assay (imaging-based growth inhibition, with or without 0.8 mM CoA); assay type: cell-based; conditions: for rescue by coenzyme A supplementation (in words): 0.8 mM CoA; for IC50-ratio (CoA/solvent): IC50 with 0.8 mM CoA / IC50 solvent, threshold 5× significant; for IC50: Plasmodium falciparum, 3D7, 72 h; for IC50 shift with CoA supplementation: IC50 CoA / IC50 solvent
Method: Plasmodium falciparum parasites (3D7 strain) were grown in RPMI 1640 supplemented with 25 mM HEPES, 5 mg/mL Albumax II, and 0.37 mM hypoxanthine. Parasites were subjected to two rounds of sorbitol synchronization before undergoing compound treatment. Ring stage parasites were exposed to the experimental compounds alone, or in combination with 0.8 mM coenzyme A (CoA) in 384-wells imaging microplates (CellCarrier, PerkinElmer), as previously described. […] Puromycin 5 µM and untreated solvent were used as in-plate positive and negative controls, respectively. Samples were dissolved in DMSO to a final assay DMSO concentration of 0.4%. […] All sample and control wells contained the same final amounts of solvents. Plates were incubated for 72 h at 90% N2, 5% CO2, 5% O2, then parasites were stained with 2-(4-amidinophenyl)-1H-indole-6-carboxamidine (DAPI), and imaged using an Opera QEHS micro-plate confocal imaging system (PerkinElmer) with 405 nm excitation and 450/50 emission filter, using a 20× water immersion objective. Images were analysed as previously described, to obtain normalized % inhibition data, which were then used to calculate IC50 values, through a four parameter logistic curve fitting in GraphPad Prism v.6. The experiment was carried out in two independent biological replicates, each consisting of two technical replicates. Dose–response curves are illustrated in the Additional file 4.

[3] = test system: human embryonic kidney (HEK-293) cells; test: Cytotoxicity assay: human HEK-293 cell line (resazurin); assay type: cell-based; conditions: Homo sapiens, read-out: IC50 [µM], HEK-293
Method: Cytotoxicity against human embryonic kidney (HEK-293) cells was assessed as previously described. […] Cells were detached using Accutase treatment, then seeded into black clear-bottom 384-wells fluorescence microplates (Greiner), at a cell density of 44,000 cells/mL in 45 µL/well, using a Benchtop liquid dispenser (Thermo Fisher Multidrop). After seeding, the cells were brought back to the incubator and allowed to settle and reattach overnight. […] Plates were incubated at the standard condition above for 72 h. At the end of the incubation the medium in each well was replaced with 1 mM resazurin, and the plates were read using a multilabel microplate reader (PerkinElmer Envision) at 530 nm excitation and 595 nm emission wavelengths after a further 6 h incubation. Inhibition data was generated using Office Excel 2013 (Microsoft). IC50 values were calculated by fitting a four-parameter nonlinear regression model using Prism v.6.0 (Graphpad Software Inc., La Jolla, CA, USA).

Plasmodium falciparum = test system: Plasmodium falciparum; set-up: method as in PMID 27855724; conditions: addition of pantethine; cited from earlier work
Plasmodium berghei = test system: Plasmodium berghei; set-up: method as in PMID 24900512; conditions: 50 mg/kg subcutaneously over 4 days; cited from earlier work
[4] = Plasmodium falciparum, NF54, 48 h
[5] = 0.8 mM CoA (rescue), 72 h, read-out: IC50 [µM], Pf3D7 + 0.8 mM CoA
[6] = no CoA (solvent, non-rescue), 72 h, read-out: IC50 [µM], Pf3D7 + solvent

Compound: CCc1ccc(-c2nnc(Sc3ncnc4sccc34)o2)cc1 [Compound 3k]
inhibition at 3 µM [1, 4]: -7 ± 1.8%

Compound: CN(CC[C@H](N)CC(=O)N[C@H]1C=C[C@H](n2ccc(N)nc2=O)O[C@@H]1C(=O)O)C(=N)N [BS, Blasticidin, reference compound]
inhibition of parasite growth (positive control) ([1]; 2 µg/mL): > 90%
% inhibition, PfNF54-Luc at 3 µM [1]: 99.3 ± 0.7%

Compound: Clc1ccc2[nH]c(Sc3ncnc4sccc34)nc2c1 [Compound 8i]
% inhibition, PfNF54-Luc at 3 µM [1]: inactive
inhibition at 3 µM [1, 4]: -18.4 ± 10.6%

Compound: COc1ccc(-c2nnc(Sc3ncnc4sccc34)o2)cc1 [Compound 3c]
inhibition at 30 µM ([1]; Plasmodium falciparum, NF54, 48 h, read-out: % inhibition, PfNF54-Luc at 30 µM, 30 µM, 48 h): < 50%

Compound: Cc1ccc(-c2nnc(Sc3ncnc4sccc34)o2)cc1 [Compound 3j]
inhibition at 3 µM [1, 4]: -11 ± 6.7%

Compound: CC(C)(C)OC(=O)NCc1nnc(Sc2ncnc3sccc23)o1 [Compound 3o]
inhibition at 3 µM [1, 4]: 2.28 ± 3.31%

Compound: c1coc(-c2nnc(Sc3ncnc4[nH]cnc34)o2)c1 [Compound 6b]
inhibition at 3 µM [1, 4]: 1.79 ± 2.53%

Compound: c1coc(-c2nnc(Sc3ncnc4[nH]ccc34)o2)c1 [Compound 6a]
inhibition at 3 µM [1, 4]: -24.8 ± 13.6%

Compound: Clc1ccccc1-c1nnc(Sc2ncnc3sccc23)o1 [Compound 3f]
inhibition at 3 µM [1, 4]: 1.5 ± 4.3%

Compound: CC(C)(C)OC(=O)N1CCC(c2nnc(Sc3ncnc4sccc34)o2)CC1 [Compound 3n]
inhibition at 3 µM [1, 4]: -0.82 ± 3.11%

Compound: CC(C)(C)c1nnc(Sc2ncnc3sccc23)o1 [Compound 3p]
inhibition at 3 µM [1, 4]: -14.6 ± 12.9%

Compound: CCN(CC)CCCC(C)Nc1ccnc2cc(Cl)ccc12 (stereo not shown) [Chloroqu, Chloroquine, reference compound]
rescue by coenzyme A supplementation (in words) [2]: not rescued
IC50-ratio (CoA/solvent) [2]: 1.39
IC50 ([2]; read-out: IC50 [µM], Pf3D7 + 0.8 mM CoA): 0.0271 ± 0.0094 µM
IC50 ([2]; read-out: IC50 [µM], Pf3D7 + solvent): 0.0195 ± 0.0034 µM
IC50 ([3]; HEK293, 72 h): > 40 µM

Compound: Brc1ccccc1-c1nnc(Sc2ncnc3sccc23)o1 [Compound 3g]
inhibition at 3 µM [1, 4]: -13.1 ± 9.1%

Compound: N#Cc1nccnc1Sc1nnc(-c2ccco2)o1 [Compound 6c]
inhibition at 3 µM [1, 4]: 0.98 ± 1.52%

Compound: CC1CCc2sc(-c3nnc(Sc4ncnc5sccc45)o3)cc2C1 (stereo not shown) [Compound 3h]
inhibition at 3 µM [1, 4]: -103 ± 4.4%

Compound: COc1ccc2[nH]c(Sc3ncnc4sccc34)nc2c1 [Compound 8j]
% inhibition, PfNF54-Luc at 3 µM [1]: inactive
inhibition at 3 µM [1, 4]: -36.3 ± 10.6%

IC50 [2, 5]: 0.0049 ± 0.0011 µM
IC50 [2, 6]: 0.00337 ± 0.00065 µM
Compound: C[C@@H]1CC[C@H]2[C@@H](C)C(=O)O[C@@H]3O[C@@]4(C)CC[C@@H]1[C@]32OO4 [Artemis, artemisinin, reference compound]
rescue by coenzyme A supplementation (in words) [2]: not rescued

IC50-ratio (CoA/solvent) [2]: 2.78
IC50 [2, 5]: 0.0939 ± 0.0016 µM
Compound: COc1ccc(C[C@H](N)C(=O)N[C@H]2[C@@H](O)[C@H](n3cnc4c(N(C)C)ncnc43)O[C@@H]2CO)cc1 [Puromyc, puromycin, reference compound]
rescue by coenzyme A supplementation (in words) [2]: not rescued
IC50 ([3]; HEK293, cytotoxicity, 72 h): 0.36 µM

IC50 [2, 6]: 752 ± 82 µM
Compound: CC(C)(CO)C(O)C(=O)NCCCO (stereo not shown) [Pantoth, panthenol, reference compound]
rescue by coenzyme A supplementation (in words) [2]: rescued

Compound: c1nc(Sc2nnc(C3CCNCC3)o2)c2ccsc2n1 [Compound 3r]
inhibition at 3 µM [1, 4]: 7.7 ± 1.8%

Compound: Cn1cnnc1Sc1ncnc2sccc12 [Compound 8b]
rescue by coenzyme A supplementation (in words) [2]: significantly rescued
IC50 shift with CoA supplementation [2]: sevenfold
IC50-ratio (CoA/solvent) [2]: 7.39
IC50 [2, 5]: ~40 µM
IC50 [2, 6]: 6.4 ± 4.3 µM
% inhibition, PfNF54-Luc at 3 µM [1]: inactive
inhibition at 3 µM [1, 4]: 4.7 ± 2.6%
IC50 ([3]; HEK293, cytotoxicity, 72 h): > 40 µM

Compound: Fc1ccc(-c2nnc(Sc3ncnc4sccc34)o2)cc1 [Compound 3m]
inhibition at 3 µM [1, 4]: -8.3 ± 4.1%

IC50 shift with CoA supplementation [2]: > 13 fold
IC50-ratio (CoA/solvent) [2]: 40.8
IC50 [2, 5]: 1.51 ± 0.19 µM
IC50 [2, 6]: 0.037 ± 0.0017 µM
Compound: Cc1csc(Sc2ncnc3sccc23)n1 [Amb180780, reference compound]
rescue by coenzyme A supplementation (in words) [2]: rescued
rescue of activity by pantethine, dephospho CoA and CoA (Plasmodium falciparum): more than 75%
IC50 ([3]; HEK293, cytotoxicity, 72 h): > 40 µM

Compound: Cc1ccc2nc(Sc3ncnc4sccc34)[nH]c2c1 [Compound 8h]
% inhibition, PfNF54-Luc at 3 µM [1]: inactive
inhibition at 3 µM [1, 4]: -1.9 ± 5.3%

Compound: O=S(=O)(c1ccc(-c2nnc(Sc3ncnc4sccc34)o2)cc1)N1CCCCC1 [Compound 3e]
inhibition at 3 µM [1, 4]: -7.3 ± 6.9%

Compound: c1coc(-c2nc(Sc3ncnc4sccc34)n[nH]2)c1 [Compound 8a]
IC50 [2, 5]: 16.1 ± 2.2 µM
IC50 [2, 6]: 10.5 ± 1.1 µM
% inhibition, PfNF54-Luc at 3 µM [1]: 33.2 ± 6.8%
inhibition at 3 µM [1, 4]: 33%
IC50 ([3]; HEK293, cytotoxicity, 72 h): > 40 µM

Compound: O=S(=O)(c1ccc(-c2nnc(Sc3ncnc4sccc34)o2)cc1)N1CCOCC1 [Compound 3l]
inhibition at 3 µM [1, 4]: 24.3 ± 3.2%

Compound: c1ccn2c(Sc3ncnc4sccc34)nnc2c1 [compound 33]
drop in parasitaemia (Plasmodium berghei): 34%
life-span of infected animals (Plasmodium berghei): failed to prolong the life-span

Compound: OCc1nnc(Sc2ncnc3sccc23)o1 [Compound 3q]
inhibition at 3 µM [1, 4]: -12.3 ± 2.2%

Compound: CCN(CC)S(=O)(=O)c1ccc(-c2nnc(Sc3ncnc4sccc34)o2)cc1 [Compound 3d]
inhibition at 3 µM [1, 4]: -0.6 ± 5.4%

Compound: NCc1nnc(Sc2ncnc3sccc23)o1 [Compound 3s]
inhibition at 3 µM [1, 4]: -2.8 ± 16.6%

Compound: c1cncc(-c2nnc(Sc3ncnc4sccc34)o2)c1 [Compound 3i]
inhibition at 3 µM [1, 4]: -5.5 ± 3.8%
